# Test results as given in patent publication US6528095B1, “Anti-atherosclerotic and anti-thrombotic agent and the use thereof” (Potchefstroom University for Christian Higher Education, priority 2000, dated 2003).
# Like-named read-outs stand apart in the source and are kept apart here.
# How the values were obtained:
# [1] = Pectin / calcium acetate supplementation in human males: body weight and BMI; assay type: in vivo
# Excerpt: The acetate supplement (phase 2), however, caused a decrease (from 88.16±12.35 kg to 83.09±10.80 kg) in body weight. Although this decrease may not be of statistical significance, it can be clinically significant in the cases of those subjects who lost weight.
# [2] = Supplementation in human males: haemorheological variables (haematocrit, haemoglobin, plasma viscosity); assay type: in vivo; conditions: for VISCOSITY: plasma
# Protocol: (§1) The respective effects of pectin and an acetate when administered to the colon of a mammal were determined during a first experiment. The experiment was conducted in the following two phases: [drawing 1]
# (§2) Twenty human males participated in the experimentation and these subjects were not on any medication for any chronic diseases at the time, and also had no history of cardiovascular disease. All the subjects were at the time following a relatively high fibre, low fat diet. During the first phase ten subjects consumed a total of 15 grams of pectin per day in four aliquots, while the other ten consumed a total of 15 grams of placebo (starch) per day in four aliquots.
# (§3) During the second phase, the first group consumed a total of 7.5 grams of calcium acetate per day in four aliquots and the second group consumed a total of 15 grams of pectin per day in four aliquots. The calcium acetate was administered in capsules which were coated with a protective coating comprising a resin known commercially as shellac. This protective coating is resistant to digestion and solution in the stomach and small intestines, is but not resistant to the enzymes of the organisms usually found in the colon, so that the calcium acetate was thus released in the colon.
# (§4) Blood samples where taken from the subjects after each phase and a large number of variables where tested.
# [3] = system: fibrin clot; test: Supplementation in human males: haemostatic variables and characteristics of fibrin networks developed in plasma; assay type: in vivo; conditions: for CLOT (FIBRIN): clot fibrin content; for LYSIS TIME (t 50%) / Permeability: clot; for COMPACTION: fibrin clot; for MPC: macromolecular protein complex; for μ,: mass length ratio from turbidity; for FIBRINOGEN: plasma
# Protocol: as §1, §2, §3, §4
# [4] = system: blood lipids; test: Supplementation in human males: lipid variables; assay type: in vivo; conditions: for TC: total cholesterol; for TG: triglycerides
# Protocol: as §1, §2, §3, §4
# [5] = Supplementation in human males: metabolic variables; conditions: for ACETATE: acetate level in blood sample; for FFA: free fatty acids; for IR: insulin resistance; for TP: total protein
# Protocol: as §1, §2, §3, §4
# [6] = target: fibrin (Homo sapiens, UniProt P02671+P02675+P02679); conditions: progressive increase in acetate, FIG. 2
# Sequence of fibrin (P02671 36-629 limits assumed): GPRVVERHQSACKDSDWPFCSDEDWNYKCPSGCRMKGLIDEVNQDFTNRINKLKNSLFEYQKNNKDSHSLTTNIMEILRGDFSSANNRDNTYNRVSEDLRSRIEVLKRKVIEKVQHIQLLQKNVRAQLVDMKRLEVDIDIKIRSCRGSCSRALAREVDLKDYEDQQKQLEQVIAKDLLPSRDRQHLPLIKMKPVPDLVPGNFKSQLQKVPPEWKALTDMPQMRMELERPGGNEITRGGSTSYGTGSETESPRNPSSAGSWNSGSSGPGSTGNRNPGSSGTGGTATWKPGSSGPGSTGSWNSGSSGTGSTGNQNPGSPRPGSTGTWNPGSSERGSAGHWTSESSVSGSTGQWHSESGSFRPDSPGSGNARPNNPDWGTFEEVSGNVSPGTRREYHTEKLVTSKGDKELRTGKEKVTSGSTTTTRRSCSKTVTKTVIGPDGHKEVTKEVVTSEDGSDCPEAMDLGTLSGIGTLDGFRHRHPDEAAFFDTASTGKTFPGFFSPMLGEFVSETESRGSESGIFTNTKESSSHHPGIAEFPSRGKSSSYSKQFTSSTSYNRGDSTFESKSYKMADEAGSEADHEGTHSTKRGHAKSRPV
# Sequence of fibrin (P02675 45-491 limits assumed): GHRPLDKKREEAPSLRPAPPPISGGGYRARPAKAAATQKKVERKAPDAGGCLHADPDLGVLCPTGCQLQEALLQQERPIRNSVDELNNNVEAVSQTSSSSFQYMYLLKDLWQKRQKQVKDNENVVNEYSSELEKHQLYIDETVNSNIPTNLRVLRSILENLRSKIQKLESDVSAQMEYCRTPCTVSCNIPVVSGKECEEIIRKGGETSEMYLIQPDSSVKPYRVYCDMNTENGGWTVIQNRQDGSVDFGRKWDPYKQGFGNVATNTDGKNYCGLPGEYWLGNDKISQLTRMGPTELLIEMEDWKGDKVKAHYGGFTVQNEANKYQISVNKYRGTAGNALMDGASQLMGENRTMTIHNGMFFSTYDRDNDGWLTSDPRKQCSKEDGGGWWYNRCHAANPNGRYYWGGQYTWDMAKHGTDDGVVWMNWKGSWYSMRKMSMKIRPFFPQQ
# Sequence of fibrin (P02679 27-437 isoform P02679-2 limits assumed): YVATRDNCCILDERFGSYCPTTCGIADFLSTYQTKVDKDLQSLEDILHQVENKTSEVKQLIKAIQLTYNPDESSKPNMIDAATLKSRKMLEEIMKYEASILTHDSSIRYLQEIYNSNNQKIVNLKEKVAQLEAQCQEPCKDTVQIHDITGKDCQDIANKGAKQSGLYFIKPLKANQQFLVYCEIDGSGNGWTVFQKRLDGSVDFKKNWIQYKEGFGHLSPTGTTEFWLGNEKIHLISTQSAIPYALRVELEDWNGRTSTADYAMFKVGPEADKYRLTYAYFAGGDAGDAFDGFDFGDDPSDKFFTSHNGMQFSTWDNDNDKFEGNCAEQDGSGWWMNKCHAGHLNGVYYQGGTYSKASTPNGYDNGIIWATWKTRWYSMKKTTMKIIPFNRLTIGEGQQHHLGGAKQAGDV
# Excerpt: FIG. 2 is a urbidity curve of fibrin formation in the presence of different acetate concentrations; and
# Referring to FIG. 2, the kinetics of network growth were subsequently investigated by continuously recording changes in turbidity at 608 nm, during network development under identical experimental conditions.
# [7] = target: fibrin clot (Homo sapiens, UniProt P02671+P02675+P02679); conditions: in vitro, n = 5
# Sequence of fibrin clot (Homo sapiens, UniProt P02671+P02675+P02679) (P02671 36-629 limits assumed): as the sequence (P02671 36-629 limits assumed) above
# Sequence of fibrin clot (Homo sapiens, UniProt P02671+P02675+P02679) (P02675 45-491 limits assumed): as the sequence (P02675 45-491 limits assumed) above
# Sequence of fibrin clot (Homo sapiens, UniProt P02671+P02675+P02679) (P02679 27-437 isoform P02679-2 limits assumed): as the sequence (P02679 27-437 isoform P02679-2 limits assumed) above
# [8] = system: blood lipids; conditions: for % Inhibition / [Hydroperoxide]: in vitro; for [Hydroperoxide]: n = 5
# [9] = Pectin / calcium acetate supplementation in human males: body weight and BMI; assay type: in vivo; remark: listed apart in the source
# [10] = phase 2, end of supplementation (pectin 15 g/day; calcium acetate 7.5 g/day)
smiles,measurement,setting,value
"CC(=O)[O-].CC(=O)[O-].[Ca+2] [ACETATE, calcium acetate]",BMI,"[1]; phase 2, baseline",26.90 kg/m^2
same,BMI,[1]; [10],25.65 kg/m^2
same,HAEMATOCRIT,"[2]; phase 2, baseline",48.55%
same,HAEMOGLOBIN,"[2]; phase 2, baseline",11.12 mmol/L
same,HAEMATOCRIT,[2]; [10],46.83 ± %
same,HAEMOGLOBIN,[2]; [10],10.48 mmol/L
same,VISCOSITY,"[2]; phase 2, baseline",1.92 cP
same,VISCOSITY,[2]; [10],1.61 ± cP
same,CLOT (FIBRIN),"[3]; phase 2, baseline",2.00 g/L
same,CLOT (FIBRIN),[3]; [10],1.62 ± g/l
same,LYSIS TIME (t 50%),"[3]; phase 2, baseline",251.9
same,Permeability,"[3]; phase 2, baseline",212.52 × 10^11 cm^3
same,LYSIS TIME (t 50%),[3]; [10],130.3 ±
same,Permeability,[3]; [10],306.81 ± × 10^11 cm^3
same,COMPACTION,"[3]; phase 2, baseline",22.47%
same,COMPACTION,[3]; [10],32.21 ± %
same,MPC,"[3]; phase 2, baseline",0.1146 g/L
same,MPC,[3]; [10],0.0852 ± g/l
same,"μ,","[3]; phase 2, baseline",22.93 Dal/cm × 10^12
same,"μ,",[3]; [10],34.28 ± Dal/cm × 10^12
same,decrease in the total plasma fibrinogen concentration,"[3]; phase 2, acetate supplementation, not significant",11.2%
same,FIBRINOGEN,"[3]; phase 2, baseline",4.10 g/L
same,FIBRINOGEN,[3]; [10],3.64 g/L
same,% HDL-C,"[4]; phase 2, baseline",17.04%
same,ApoA,"[4]; phase 2, baseline",1.50 mmol/L
same,ApoB,"[4]; phase 2, baseline",1.47 mmol/L
same,H2O3,"[4]; phase 2, baseline",1.27 µM
same,HDL-C,"[4]; phase 2, baseline",1.11 mmol/L
same,LDL-C,"[4]; phase 2, baseline",4.97 ± mmol/l
same,TBARM,"[4]; phase 2, baseline",1.47 µM
same,% HDL-C,[4]; [10],20.32 ± %
same,ApoA,[4]; [10],1.40 ± mmol/l
same,ApoB,[4]; [10],1.34 ± mmol/l
same,H2O3,[4]; [10],0.81 ± μM
same,HDL-C,[4]; [10],1.18 mmol/L
same,LDL-C,[4]; [10],4.20 ± mmol/l
same,TBARM,[4]; [10],1.07 µM
same,TC,"[4]; phase 2, baseline",6.55 mmol/L
same,TC,[4]; [10],5.81 ± mmol/l
same,TG,"[4]; phase 2, baseline",0.65 mmol/L
same,TG,[4]; [10],1.33 ± mmol/l
same,ACETATE,"[5]; phase 2, baseline",37.63 µmol/L
same,ACETATE,[5]; [10],54.31 ± μmol/l
same,FFA,"[5]; phase 2, baseline",0.59 mmol/L
same,FFA,[5]; [10],0.45 ± mmol/l
same,IR,"[5]; phase 2, baseline",3.22
same,IR,[5]; [10],2.93
same,ALBUMIN,"[5]; phase 2, baseline",43.09 g/L
same,GLUCOSE,"[5]; phase 2, baseline",3.58 mmol/L
same,INSULIN,"[5]; phase 2, baseline",8.96 μU/ml
same,PPA/ALB,"[5]; phase 2, baseline",13.69 × 10^1
same,ALBUMIN,[5]; [10],45.50 g/L
same,GLUCOSE,[5]; [10],3.78 mmol/L
same,INSULIN,[5]; [10],7.61 μU/ml
same,PPA/ALB,[5]; [10],9.89 ± × 10^1
same,TP,"[5]; phase 2, baseline",71.69 g/L
same,TP,[5]; [10],71.52 g/L
same,kinetics of network growth (turbidity at 608 nm),[6],enhanced the entire kinetics
same,Clot [FIBRlN],[7]; 75 μmol/L acetate,1.36 ± 0.03 g/L
same,Permeability,[7]; 75 μmol/L acetate,110.4 ± 5.17 × 10^11 cm^2
same,μT,[7]; 75 μmol/L acetate,17.44 ± 0.20 daltons/cm × 10^12
same,Clot [FIBRlN],[7]; 100 μmol/L acetate,1.37 ± 0.07 g/L
same,Permeability,[7]; 100 μmol/L acetate,118.0 ± 6.03 × 10^11 cm^2
same,μT,[7]; 100 μmol/L acetate,17.95 ± 0.22 daltons/cm × 10^12
same,Clot [FIBRlN],[7]; 150 μmol/L acetate,1.39 ± 0.05 g/L
same,Permeability,[7]; 150 μmol/L acetate,134.0 ± 5.02 × 10^11 cm^2
same,μT,[7]; 150 μmol/L acetate,19.51 ± 0.17 daltons/cm × 10^12
same,% Inhibition,[8]; 0.05 mmol/L (50 μM) acetate,46.97%
same,[Hydroperoxide],[8]; 0.05 mmol/L acetate,4.46 ± 0.15 × 10^−6 M
same,% Inhibition,[8]; 0.10 mmol/L (100 μM) acetate,56.01%
same,[Hydroperoxide],[8]; 0.10 mmol/L acetate,3.70 ± 0.22 × 10^−6 M
same,% Inhibition,[8]; 0.20 mmol/L (200 μM) acetate,67.11%
same,[Hydroperoxide],[8]; 0.20 mmol/L acetate,3.04 ± 0.23 × 10^−6 M
same,% Inhibition,[8]; 0.30 mmol/L (300 μM) acetate,73.12%
same,[Hydroperoxide],[8]; 0.30 mmol/L acetate,2.26 ± 0.16 × 10^−6 M
same,minium inhibition: decrease of peroxidation in vitro from linear regression analysis,"[8]; r=0.98, m=−0.836",56.12%
same,BODY WEIGHT,"[9]; phase 2, baseline",88.16 ± 12.35 kg
same,BODY WEIGHT,"[9]; phase 2, baseline, listed as PLACEBO",88.16 kg
same,decrease in body weight,"[9]; phase 2, clinically significant but statistically insignificant",5.07 kg
same,BODY WEIGHT,[9]; [10],83.09 ± 10.80 kg
same,BODY WEIGHT,"[9]; phase 2, end of supplementation (pectin 15 g/day; calcium acetate 7.5 g/day), listed as PLACEBO",83.04 kg
